Patent US20110190123A1, “SLOW-RELEASE FORMULATIONS CONTAINING QUILLAY EXTRACTS, FOR CONTROLLING WHEAT TAKE-ALL DISEASE” (priority 2008, published 2011)

Experiments:
Gaeumannomyces graminis = test: Field tests in Region IX of Chile, root rot in wheat plants; format: in vivo; settings: four field experiments, highly rainy season
Description: This invention refers to natural fungicides used in seed treatment or soil treatment, that are obtained from quillay extract formulation, rich in saponin concentrations, to which synthetic polymers have been adhered (latex and resins) allowing its slow release in the soil, and which efficiency and control have been tested at a plant pot and field experiment level on fungus Gaeumannomyces graminis, which is the cause of take-all of wheat.

Ggt = test: Plant pot experiments, control of take-all in wheat (Take-All Index); format: in vivo, Gaeumannomyces graminis
Method: Agronomic evaluation of control effectiveness of the formulations developed on the Ggt fungus was conducted through the establishment of 26 experiments in plant pots. These experiments allowed to evaluate new formulations, or correct defective aspects of the formulations developed. Evaluation methodology was made under greenhouse and awning conditions, considering: soil use of Yerbas Buenas ([…] Region VII), which was sterilized by autoclave and inoculated with Ggt grown in oat grains during 40 days. Soil was placed in PVC plant pots arranged on a wooden plate, where it was seeded with a wheat seed of cv. Dalcahue-INIA.
In these experiences two sample treatments were used (with and without inoculum) and one commercial sample Silthiofam (Latitude®, Monsanto) in dosis of 2 L/ton of seed to compare the effectiveness of different slow release formulations or “Slow release” based on quillay extract.

[1] = FIG. 6 experiment, Oct. 3, 2005
[2] = average of plant pot experiments

In the case of `C=CCNC(=O)c1c([Si](C)(C)C)sc(C)c1C` [Silthiofam], the “effectiveness in field experiments” value (Gaeumannomyces graminis) is reported as “did not show effectiveness”, the “control with respect to the inoculated sample” value (Ggt; FIG. 2 experiment, seed treatment, Silthiofam 2 L/ton of seed) is reported as 44% and the “control with respect to the inoculated sample” value (Ggt; FIG. 3 experiment, seed treatments, QL 1000 4 L per ha) is reported as 50.8%. For the same compound, the “Take-All Index (TAI)” value (Ggt; [1]) was 28, the “control with respect to the non-treated sample” value (Ggt; [1]) was 71% and the “Take-All Index (TAI), average among all experiences” value (Ggt; [2]) was 24.6. The “average control level with respect to the inoculated sample” value (Ggt; [2]) was 67.5%.
